How the values were obtained:
[1] = system: Glo-Response ARE-luc2P HEK293 cell line; assay: ARE luciferase reporter cell-based assay; conditions: Homo sapiens, HEK293, 24 h, average of results obtained;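 further: luciferase signal tracks Nrf2 activation of the ARE once compounds disrupt KEAP1-Nrf2 binding, read with One-Glo reagent, DMSO serving as low control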
[2] = target: Kelch domain of human KEAP1 (321-624 aa) (Homo sapiens (Human), UniProt Q14145); assay: KEAP1 KELCH ThermoFluor binding assay; conditions: KEAP Kelch […], 1,8-ANS, pH 7.0, average of results obtained, read-out: Tf Kd;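 further: Ligand-induced melting temperature shift of E. coli-expressed KEAP1 Kelch protein, Kd estimated from concentration-response curves of ΔTm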
Chain of Kelch domain of human KEAP1 (321-624 aa) (Q14145 321-624): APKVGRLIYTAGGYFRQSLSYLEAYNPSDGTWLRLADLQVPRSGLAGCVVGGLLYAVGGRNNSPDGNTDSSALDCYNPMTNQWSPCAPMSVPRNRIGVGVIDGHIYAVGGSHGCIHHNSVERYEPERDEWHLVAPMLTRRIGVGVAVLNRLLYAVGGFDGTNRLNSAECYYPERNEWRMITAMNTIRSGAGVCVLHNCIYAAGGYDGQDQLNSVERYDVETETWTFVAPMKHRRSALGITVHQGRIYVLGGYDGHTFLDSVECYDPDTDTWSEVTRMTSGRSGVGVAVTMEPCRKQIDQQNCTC

| SMILES | Kd [2] | EC50 [1] |
| --- | --- | --- |
| CCn1nnc2c(C)c(C(CC(=O)O)c3ccc(C)c(CN4CC5(CCOCC5)Oc5ccc(F)cc5S4(=O)=O)n3)ccc21 (single isomer, unassigned) [Example 419, (*R)-3-(1-ethyl-4-methyl-1H-benzo[d][1,2,3]triazol-5-yl)-3-(6-((8-fluoro-1,1-dioxido-2′,3′,5′,6′-tetrahydrospiro[benzo[b][1,4,5]oxathiazepine-4,4′-pyran]-2(3H)-yl)methyl)-5-methylpyridin-2-yl)propanoic Acid] | < 1 nM | 4.15 nM |
| CCn1nnc2c(C)c([C@H](c3ccc(C)c(CN4CC5(CCOCC5)Oc5ncc(C)cc5S4(=O)=O)c3)C(C)(C)C(=O)O)ccc21 (single isomer, unassigned) [Example 420, (*S)-3-(1-ethyl-4-methyl-1H-benzo[d][1,2,3]triazol-5-yl)-2,2-dimethyl-3-(4-methyl-3-((8′-methyl-1′,1′-dioxido-2,3,5,6-tetrahydrospiro[pyran-4,4′-pyrido[2,3-b][1,4,5]oxathiazepin]-2′(3′H)-yl)methyl)phenyl)propanoic Acid] | 268 nM | 57.8 nM |
| Cc1ccc([C@@H](c2ccn3c(C(F)(F)F)nnc3c2C)C(C)(C)C(=O)O)cc1CN1C[C@H]2CCCCN2c2ncc(C#N)cc2S1(=O)=O (single isomer, unassigned) [Example 422, (*S)-3-(3-(((*R)-3-cyano-5,5-dioxido-7,7a,8,9,10,11-hexahydro-6H-dipyrido[2,1-d:2′,3′-f][1,2,5]thiadiazepin-6-yl)methyl)-4-methylphenyl)-2,2-dimethyl-3-(8-methyl-3-(trifluoromethyl)-[1,2,4]triazolo[4,3-a]pyridin-7-yl)propanoic Acid] | < 1 nM | 1.3 nM |
| Cc1ccc([C@H](c2ccn3c(C(F)(F)F)nnc3c2C)C(C)(C)C(=O)O)cc1CN1C[C@H]2CCCCN2c2ncc(C#N)cc2S1(=O)=O (single isomer, unassigned) [Example 423, (*R)-3-(3-(((*R)-3-cyano-5,5-dioxido-7,7a,8,9,10,11-hexahydro-6H-dipyrido[2,1-d:2′,3′-f][1,2,5]thiadiazepin-6-yl)methyl)-4-methylphenyl)-2,2-dimethyl-3-(8-methyl-3-(trifluoromethyl)-[1,2,4]triazolo[4,3-a]pyridin-7-yl)propanoic Acid] | 586 nM | 409 nM |
| Cc1ccc([C@@H](c2ccn3c(C(F)(F)F)nnc3c2C)C(C)(C)C(=O)O)cc1CN1C[C@@H]2CCCCN2c2ncc(C#N)cc2S1(=O)=O (single isomer, unassigned) [Example 424, (*S)-3-(3-(((*S)-3-cyano-5,5-dioxido-7,7a,8,9,10,11-hexahydro-6H-dipyrido[2,1-d:2′,3′-f][1,2,5]thiadiazepin-6-yl)methyl)-4-methylphenyl)-2,2-dimethyl-3-(8-methyl-3-(trifluoromethyl)-[1,2,4]triazolo[4,3-a]pyridin-7-yl)propanoic Acid] | < 1 nM | 1.65 nM |
| Cc1ccc([C@H](c2ccn3c(C(F)(F)F)nnc3c2C)C(C)(C)C(=O)O)cc1CN1C[C@@H]2CCCCN2c2ncc(C#N)cc2S1(=O)=O (single isomer, unassigned) [Example 425, (*R)-3-(3-(((*S)-3-cyano-5,5-dioxido-7,7a,8,9,10,11-hexahydro-6H-dipyrido[2,1-d:2′,3′-f][1,2,5]thiadiazepin-6-yl)methyl)-4-methylphenyl)-2,2-dimethyl-3-(8-methyl-3-(trifluoromethyl)-[1,2,4]triazolo[4,3-a]pyridin-7-yl)propanoic Acid] | < 1 nM | 96.9 nM |
| Cc1ccc([C@@H](c2ccc3c(nnn3CC3CC3)c2C)C(C)(C)C(=O)O)cc1CN1CC2(CCOCC2)Oc2ncccc2S1(=O)=O (single isomer, unassigned) [Example 428, (S*)-3-(1-(cyclopropylmethyl)-4-methyl-1H-benzo[d][1,2,3]triazol-5-yl)-3-(3-((1′,1′-dioxido-2,3,5,6-tetrahydrospiro[pyran-4,4′-pyrido[2,3-b][1,4,5]oxathiazepin]-2′(3′H)-yl)methyl)-4-methylphenyl)-2,2-dimethylpropanoic Acid] | < 1 nM | 399 nM |
| Cc1ccc([C@@H](c2ccn3c(C(F)(F)F)nnc3c2C)C(C)(C)C(=O)O)cc1CN1CC(C)(C)Oc2ncccc2S1(=O)=O (single isomer, unassigned) [Example 430, (*S)-3-(3-((4,4-dimethyl-1,1-dioxido-3,4-dihydro-2H-pyrido[2,3-b][1,4,5]oxathiazepin-2-yl)methyl)-4-methylphenyl)-2,2-dimethyl-3-(8-methyl-3-(trifluoromethyl)-[1,2,4]triazolo[4,3-a]pyridin-7-yl)propanoic Acid] | 7830 nM | 647 nM |
| Cc1ccc([C@H](c2ccn3c(C(F)(F)F)nnc3c2C)C(C)(C)C(=O)O)cc1CN1CC(C)(C)Oc2ncccc2S1(=O)=O (single isomer, unassigned) [Example 431, (*R)-3-(3-((4,4-dimethyl-1,1-dioxido-3,4-dihydro-2H-pyrido[2,3-b][1,4,5]oxathiazepin-2-yl)methyl)-4-methylphenyl)-2,2-dimethyl-3-(8-methyl-3-(trifluoromethyl)-[1,2,4]triazolo[4,3-a]pyridin-7-yl)propanoic Acid] | < 1 nM | 2.84 nM |
| Cc1ccc([C@H](CC(=O)O)c2ccn3c(C(F)(F)F)nnc3c2C)cc1CN1CC2(CCOCC2)Oc2ncccc2S1(=O)=O (single isomer, unassigned) [Example 432, (*S)-3-(3-((1′,1′-dioxido-2,3,5,6-tetrahydrospiro[pyran-4,4′-pyrido[2,3-b][1,4,5]oxathiazepin]-2′(3′H)-yl)methyl)-4-methylphenyl)-3-(8-methyl-3-(trifluoromethyl)-[1,2,4]triazolo[4,3-a]pyridin-7-yl)propanoic Acid] | < 1 nM | 103 nM |
| Cc1cc2cc([C@@H](CC(=O)O)c3ccc(C)c(CN4C[C@H]5CCCN5c5ncccc5S4(=O)=O)c3)n(C)c2nn1 (single isomer, unassigned) [Example 435, (*S)-3-(3,7-Dimethyl-7H-pyrrolo[2,3-c]pyridazin-6-yl)-3-(3-(((R)-5,5-dioxido-7a,8,9,10-tetrahydropyrido[2,3-f]pyrrolo[2,1-d][1,2,5]thiadiazepin-6(7H)-yl)methyl)-4-methylphenyl)propanoic Acid] | 119 nM | > 20000 nM |
| Cc1cc2cc([C@H](CC(=O)O)c3ccc(C)c(CN4C[C@H]5CCCN5c5ncccc5S4(=O)=O)c3)n(C)c2nn1 (single isomer, unassigned) [Example 436, (*R)-3-(3,7-Dimethyl-7H-pyrrolo[2,3-c]pyridazin-6-yl)-3-(3-(((R)-5,5-dioxido-7a,8,9,10-tetrahydropyrido[2,3-f]pyrrolo[2,1-d][1,2,5]thiadiazepin-6(7H)-yl)methyl)-4-methylphenyl)propanoic Acid] | < 1 nM | 2230 nM |

The next lines start with results.

| Kd [2] | SMILES | EC50 [1] |
| --- | --- | --- |
| 234 nM | Cc1cc2cc([C@@H](CC(=O)O)c3ccc(C)c(CN4C[C@@H]5CCCN5c5ncccc5S4(=O)=O)c3)n(C)c2nn1 (single isomer, unassigned) [Example 438, (*S)-3-(3,7-Dimethyl-7H-pyrrolo[2,3-c]pyridazin-6-yl)-3-(3-(((S)-5,5-dioxido-7a,8,9,10-tetrahydropyrido[2,3-f]pyrrolo[2,1-d][1,2,5]thiadiazepin-6(7H)-yl)methyl)-4-methylphenyl)propanoic Acid] | > 20000 nM |
| 1.26 nM | Cc1cc2cc([C@H](CC(=O)O)c3ccc(C)c(CN4C[C@@H]5CCCN5c5ncccc5S4(=O)=O)c3)n(C)c2nn1 (single isomer, unassigned) [Example 439, (*R)-3-(3,7-Dimethyl-7H-pyrrolo[2,3-c]pyridazin-6-yl)-3-(3-(((S)-5,5-dioxido-7a,8,9,10-tetrahydropyrido[2,3-f]pyrrolo[2,1-d][1,2,5]thiadiazepin-6(7H)-yl)methyl)-4-methylphenyl)propanoic Acid] | 2440 nM |
| 60.3 nM | Cc1cc2cc([C@@H](CC(=O)O)c3ccc(C)c(CN4C[C@@H]5CCCCN5c5ncccc5S4(=O)=O)c3)n(C)c2nn1 (single isomer, unassigned) [Example 441, (*S)-3-(3,7-Dimethyl-7H-pyrrolo[2,3-c]pyridazin-6-yl)-3-(3-(((*S)-5,5-dioxido-7,7a,8,9,10,11-hexahydro-6H-dipyrido[2,1-d:2′,3′-f][1,2,5]thiadiazepin-6-yl)methyl)-4-methylphenyl)propanoic Acid] | > 20000 nM |
| < 1 nM | Cc1cc2cc([C@H](CC(=O)O)c3ccc(C)c(CN4C[C@@H]5CCCCN5c5ncccc5S4(=O)=O)c3)n(C)c2nn1 (single isomer, unassigned) [Example 442, (*R)-3-(3,7-Dimethyl-7H-pyrrolo[2,3-c]pyridazin-6-yl)-3-(3-(((*S)-5,5-dioxido-7,7a,8,9,10,11-hexahydro-6H-dipyrido[2,1-d:2′,3′-f][1,2,5]thiadiazepin-6-yl)methyl)-4-methylphenyl)propanoic Acid] | 553 nM |
| 21.3 nM | Cc1cc2cc([C@@H](CC(=O)O)c3ccc(C)c(CN4C[C@H]5CCCCN5c5ncccc5S4(=O)=O)c3)n(C)c2nn1 (single isomer, unassigned) [Example 444, (*S)-3-(3,7-Dimethyl-7H-pyrrolo[2,3-c]pyridazin-6-yl)-3-(3-(((*R)-5,5-dioxido-7,7a,8,9,10,11-hexahydro-6H-dipyrido[2,1-d:2′,3′-f][1,2,5]thiadiazepin-6-yl)methyl)-4-methylphenyl)propanoic Acid] | > 20000 nM |
| < 1 nM | Cc1cc2cc([C@H](CC(=O)O)c3ccc(C)c(CN4C[C@H]5CCCCN5c5ncccc5S4(=O)=O)c3)n(C)c2nn1 (single isomer, unassigned) [Example 445, (*R)-3-(3,7-Dimethyl-7H-pyrrolo[2,3-c]pyridazin-6-yl)-3-(3-(((*R)-5,5-dioxido-7,7a,8,9,10,11-hexahydro-6H-dipyrido[2,1-d:2′,3′-f][1,2,5]thiadiazepin-6-yl)methyl)-4-methylphenyl)propanoic Acid] | 716 nM |

Reference: patent US10947252B2, “Inhibitors of KEAP1-Nrf2 protein-protein interaction” (Janssen Pharmaceutica NV, priority 2018, dated 2021)
